# Test results: patent US7517884B2 (Kalypsys Inc., priority 1998, dated 2009)
# Key:
# Assay type in all cases: cell-based, murine and human
# Settings in all cases: GAL4-PPAR LBD chimera
# PPAR-gamma = biological target: T1, PPAR-gamma (UniProt P37231); experiment: PPAR-gamma transactivation assay (GAL4 chimera, luciferase reporter) in CV-1 cells
# T1 sequence (P37231 1-505): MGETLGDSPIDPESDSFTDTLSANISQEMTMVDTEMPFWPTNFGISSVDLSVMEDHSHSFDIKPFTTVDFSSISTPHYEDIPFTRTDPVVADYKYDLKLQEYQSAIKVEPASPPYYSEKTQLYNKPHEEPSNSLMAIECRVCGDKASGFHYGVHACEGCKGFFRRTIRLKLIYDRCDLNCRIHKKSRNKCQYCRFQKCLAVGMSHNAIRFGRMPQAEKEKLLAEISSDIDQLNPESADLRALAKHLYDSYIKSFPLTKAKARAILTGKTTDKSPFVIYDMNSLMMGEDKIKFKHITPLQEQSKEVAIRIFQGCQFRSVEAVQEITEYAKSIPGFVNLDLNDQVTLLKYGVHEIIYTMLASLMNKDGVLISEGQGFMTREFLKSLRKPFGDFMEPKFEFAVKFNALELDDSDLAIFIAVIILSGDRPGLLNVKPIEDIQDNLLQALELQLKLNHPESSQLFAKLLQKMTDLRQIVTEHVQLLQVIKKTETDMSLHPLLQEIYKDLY
# Outline: (§1)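 CV-1 cells transiently transfected with murine or human PPAR-alpha, -gamma or -delta ligand-binding domain fused to GAL4 DNA-binding domain plus a GAL4-site luciferase reporter. After replating in phenol-red-free DME with 5% delipidated calf serum, cells were exposed to compound 20-24 h; luciferase read-out gave EC50.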
# PPAR-alpha = biological target: T2, PPAR-alpha (UniProt Q07869); experiment: PPAR-alpha transactivation assay (GAL4 chimera, luciferase reporter) in CV-1 cells
# T2 sequence (Q07869 1-468): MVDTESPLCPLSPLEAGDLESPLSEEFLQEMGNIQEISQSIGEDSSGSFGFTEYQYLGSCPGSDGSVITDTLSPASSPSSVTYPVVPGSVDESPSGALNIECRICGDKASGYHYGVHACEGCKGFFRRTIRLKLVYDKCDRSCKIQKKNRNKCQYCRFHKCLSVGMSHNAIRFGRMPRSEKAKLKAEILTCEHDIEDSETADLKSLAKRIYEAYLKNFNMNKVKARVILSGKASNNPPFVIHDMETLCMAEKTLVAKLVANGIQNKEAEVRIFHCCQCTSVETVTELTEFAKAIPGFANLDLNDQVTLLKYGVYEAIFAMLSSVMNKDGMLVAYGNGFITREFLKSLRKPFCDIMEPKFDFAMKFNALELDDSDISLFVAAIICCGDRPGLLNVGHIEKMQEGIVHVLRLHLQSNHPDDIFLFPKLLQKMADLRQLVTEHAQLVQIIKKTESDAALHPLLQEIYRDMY
# Outline: as §1
# PPAR-delta = biological target: T3, PPAR-delta (UniProt Q03181); experiment: PPAR-delta transactivation assay (GAL4 chimera, luciferase reporter) in CV-1 cells
# T3 sequence (Q03181 1-441): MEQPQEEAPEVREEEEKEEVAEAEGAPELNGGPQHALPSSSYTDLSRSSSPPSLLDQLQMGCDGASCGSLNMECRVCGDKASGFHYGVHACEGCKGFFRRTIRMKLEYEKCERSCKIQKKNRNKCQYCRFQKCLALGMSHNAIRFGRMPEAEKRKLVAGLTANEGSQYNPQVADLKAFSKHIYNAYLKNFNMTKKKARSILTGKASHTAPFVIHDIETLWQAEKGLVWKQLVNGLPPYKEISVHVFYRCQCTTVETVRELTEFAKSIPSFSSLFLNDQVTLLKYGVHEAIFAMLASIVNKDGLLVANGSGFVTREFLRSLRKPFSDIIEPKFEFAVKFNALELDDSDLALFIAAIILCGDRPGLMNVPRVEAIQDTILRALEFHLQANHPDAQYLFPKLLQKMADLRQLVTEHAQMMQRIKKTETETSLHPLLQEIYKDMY
# Outline: as §1
SMILES,EC50 (PPAR-gamma) [µM],EC50 (PPAR-alpha) [µM],EC50 (PPAR-delta) [µM]
"CCC1CN(c2ccc(C(F)(F)F)cc2F)CCN1S(=O)(=O)c1ccc2c(c1)C(C(=O)O)CC2 (stereo not drawn) [Example 60, 6-[2-Ethyl-4-(2-fluoro-4-trifluoromethyl-phenyl)-piperazine-1-sulfonyl]-indan-1-carboxylic acid]",5 to 100,< 5,< 5
"C[C@H]1CN(c2ccc(Cl)c(Cl)c2)CCN1S(=O)(=O)c1ccc2c(c1)C(C(=O)O)CC2 (stereo partly drawn) [Example 61, 6-[4-(3,4-Dichloro-phenyl)-(S)-methyl-piperazine-1-sulfonyl]-indan-1-carboxylic acid]",< 5,< 5,< 5
"C[C@H]1CN(c2ccc(OC(F)(F)F)cc2)CCN1S(=O)(=O)c1ccc2c(c1)C(C(=O)O)CC2 (stereo partly drawn) [Example 62, 6-[2-(S)-Methyl-4-(4-trifluoromethoxy-phenyl)-piperazine-1-sulfonyl]-indan-1-carboxylic acid]",5 to 100,< 5,< 5
"CCC1CN(S(=O)(=O)c2ccc3c(c2)C(C(=O)O)CC3)CCN1c1ccc(C(F)(F)F)cn1 (stereo not drawn) [Example 64, 6-[3-Ethyl-4-(5-trifluoromethyl-pyrdin-2-yl)-piperazine-1-sulfonyl]-indan-1-carboxylic acid]",< 5,< 5,< 5
"O=C(O)C1CCc2ccc(S(=O)(=O)N3CC=C(c4ccc(C(F)(F)F)cn4)CC3)cc21 (stereo not drawn) [Example 66, 6-(5-Trifluoromethyl-3,6-dihydro-2H-|2,4|bipyridinyl-1-sulfonyl)-indan-1-carboxylic acid]",5 to 100,< 5,< 5
"O=C(O)C1CCc2ccc(S(=O)(=O)N3CCCN(c4ccc(C(F)(F)F)cn4)CC3)cc21 (stereo not drawn) [Example 67, 6-[4-(5-trifluoromethyl-pyridin-2-yl)-[1,4]diazepane-1-sulfonyl]-indan-1-carboxylic acid]",< 5,< 5,< 5
"O=C(O)C1CCc2ccc(S(=O)(=O)N3CCN(c4ccc(OC(F)(F)F)cc4)CC3)cc21 (stereo not drawn) [Example 71, 6-[4-(4-trifluoromethoxy-phenyl)-piperazine-1-sulfonyl]-indan-1-carboxylic acid]",< 5,< 5,< 5
"CCC1CN(c2ccc(C(F)(F)F)cn2)CCN1S(=O)(=O)c1ccc2c(c1)C(C(=O)O)CC2 (stereo not drawn) [Example 72, 6-[2-ethyl-4-(5-trifluoromethyl-pyridin-2-yl)-piperazine-1-sulfonyl]-indan-1-carboxylic acid]",< 5,< 5,< 5
"CC1(C)CN(S(=O)(=O)c2ccc3c(c2)C(C(=O)O)CC3)CCN1c1ccc(C(F)(F)F)cn1 (stereo not drawn) [Example 73, 6-[3,3-dimethyl-4-(5-trifluoromethyl-pyridin-2-yl)-piperazine-1-sulfonyl]-indan-1-carboxylic acid]",< 5,5 to 100,< 5
"O=C(O)C1CCc2ccc(S(=O)(=O)N3CCN(c4ccc(C(F)(F)F)c(Cl)c4)CC3)cc21 (stereo not drawn) [Example 74, 6-[4-(3-chloro-4-trifluoromethyl-phenyl)-piperazine-1-sulfonyl]-indan-1-carboxylic acid]",< 5,< 5,< 5
O=C(O)C1CCc2ccc(S(=O)(=O)N3C4CCC3CN(c3ccc(C(F)(F)F)cn3)C4)cc21 (stereo not drawn) [Example 78],5 to 100,5 to 100,< 5

# Second part, the compound after the results:
EC50 (PPAR-gamma) [µM],EC50 (PPAR-alpha) [µM],EC50 (PPAR-delta) [µM],SMILES
5 to 100,< 5,< 5,"CCC1CN(c2ccc(C(F)(F)F)c(F)c2)CCN1S(=O)(=O)c1ccc2c(c1)C(C(=O)O)CC2 (stereo not drawn) [Example 59, 6-[2-Ethyl-4-(3-fluoro-4-trifluoromethyl-phenyl)-piperazine-1-sulfonyl]-indan-1-carboxylic acid]"
< 5,< 5,< 5,"C[C@H]1CN(c2ccc(C(F)(F)F)c(F)c2)CCN1S(=O)(=O)c1ccc2c(c1)C(C(=O)O)CC2 (stereo partly drawn) [Example 63, 6-[4-(3-Fluoro-4-trifluoromethyl-phenyl)-2-(S)-methyl-piperazine-1-sulfonyl]-indan-1-carboxylic acid]"
< 5,< 5,< 5,"C[C@@H]1CN(S(=O)(=O)c2ccc3c(c2)C(C(=O)O)CC3)C[C@H](C)N1c1ccc(C(F)(F)F)cn1 (stereo partly drawn) [Example 65, 6-[cis-3,5-dimethyl-4-(5-trifluoromethyl-pyrdin-2-yl)-piperazine-1-sulfonyl]-indan-1-carboxylic acid]"
< 5,< 5,< 5,"C[C@H]1CN(c2ccc(C(F)(F)F)cn2)C[C@H](C)N1S(=O)(=O)c1ccc2c(c1)C(C(=O)O)CC2 (stereo partly drawn) [Example 68, 6-[trans-2,6-(S,S)-dimethyl-4-(5-trifluoromethyl-pyrdin-2-yl)-piperazine-1-sulfonyl]-indan-1-carboxylic acid]"
< 5,< 5,< 5,"C[C@H]1CN(S(=O)(=O)c2ccc3c(c2)C(C(=O)O)CC3)C[C@H](C)N1c1ccc(C(F)(F)F)cn1 (stereo partly drawn) [Example 69, 6-[trans-3,5-(S,S)-dimethyl-4-(5-trifluoromethyl-pyrdin-2-yl)-piperazine-1-sulfonyl]-indan-1-carboxylic acid]"
5 to 100,< 5,< 5,"C[C@@H]1CN(c2ccc(C(F)(F)F)c(F)c2)C[C@H](C)N1S(=O)(=O)c1ccc2c(c1)C(C(=O)O)CC2 (stereo partly drawn) [Example 70, 6-[cis-2,6-dimethyl-4-(3-fluoro-4-trifluoromethyl-phenyl)-piperazine-1-sulfonyl]-indan-1-carboxylic acid]"
> 100,> 100,< 5,"C[C@@H]1CN(c2ccc(C(F)(F)F)cn2)C[C@H](C)N1S(=O)(=O)c1cccc2c1CC(C(=O)O)C2 (stereo partly drawn) [Example 77, 4-[cis-2,6-dimethyl-4-(5-trifluoromethyl-pyridin-2-yl)-piperazine-1-sulfonyl]-indan-2-carboxylic acid]"
> 100,> 100,< 5,"C[C@@H]1CN(c2ccc(OC(F)(F)F)cc2)C[C@H](C)N1S(=O)(=O)c1cccc2c1CC(C(=O)O)C2 (stereo partly drawn) [Example 79, 4-[cis-2,6-dimethyl-4-(4-trifluoromethoxy-phenyl)-piperazine-1-sulfonyl]-indan-2-carboxylic acid]"
5 to 100,5 to 100,< 5,"C[C@@H]1CN(c2ccc(C(F)(F)F)c(F)c2)C[C@H](C)N1S(=O)(=O)c1cccc2c1CC(C(=O)O)C2 (stereo partly drawn) [Example 83, 4-[4-(3-fluoro-4-trifluoromethyl-phenyl)-cis-2,6-dimethyl-piperazine-1-sulfonyl]-indan-2-carboxylic acid]"
5 to 100,> 100,5 to 100,"C[C@@H]1CN(c2ccc(OC(F)(F)F)cc2)C[C@H](C)N1S(=O)(=O)c1ccc2c(c1)CC(C(=O)O)C2 (stereo partly drawn) [Example 84, 5-[2,6-cis-dimethyl-4-(4-trifluoromethoxy-phenyl)-piperazine-1-sulfonyl]-indan-2-carboxylic acid]"
5 to 100,5 to 100,< 5,"Cc1cc(N2C[C@@H](C)N(S(=O)(=O)c3ccc4c(c3)C(C(=O)O)CC4)[C@@H](C)C2)ccc1OC(F)F (stereo partly drawn) [Example 85, 6-[4-(4-difluoromethoxy-3-methyl-phenyl)-2,6-dimethyl-piperazine-1-sulfonyl]-indan-1-carboxylic acid]"
